The text below walks through data of patent US20240228499A1, “MASP-2 INHIBITORS AND METHODS OF USE” (Omeros Corporation, priority 2022, published 2024).

Structures are written as SMILES. Structures can show the parent of a compound that is named as a salt.

One experiment addresses T1, human a-thrombin (Homo sapiens, UniProt P00734).
T1 construct: enzyme (human a-thrombin (BioPharm® Lab.)); purchased BioPharm Lab
Put plainly: Enzymatic assay for thrombin (fluorogenic peptide substrate Boc-VPR-AMC). Format: biochemical. As to conditions: room temperature, 20 mM Hepes pH 7.4, 20 min. As for the experimental part: The thrombin assay utilizes a fluorogenic peptide substrate (Boc-VPR-AMC (R&D Systems) and was run at room temperature in an assay buffer containing 20 mM Hepes, pH 7.4, 140 mM NaCl and 0.1% Tween 20. Assay parameters were adjusted such that the assay was linear with respect to time, enzyme, and substrate concentrations. Under these optimized assays conditions, IC50 values were equivalent to Ki values, except in a few cases of “tight binding” inhibitors. Cases of “tight binding” or possible “slow binding” inhibitors were handled by the methods described in Copeland R.A. (2013) Evaluation of Enzyme Inhibitors in Drug Discovery. 2nd Ed. John Wiley and Sons, Inc., Chapters 5-7.
The thrombin assay protocol was carried out as follows. Test compounds were serially diluted in DMSO and then 100 nL of each dilution was transferred to the assay plate(s). 10 μL of Assay Buffer was added, followed by 15 μL of enzyme (human a-thrombin (BioPharm® Lab.)) in assay buffer. 15 μL of substrate in assay buffer was then added and the sample mixed to start the reaction. After 20 min at room temperature, 15 μL of a stop solution (0.1 M acetic acid) was added, the sample was mixed, and the plates were read on a SpectraMax® i3× Microplate Reader with the data exported as Excel files. Each assay plate included a “no inhibitor” (DMSO only) control, a “no enzyme” control, and a reference inhibitor control. % Activity values=100*(ave. test comp. fluorescence−ave. “no enz” fluorescence)/(ave. “DMSO only” fluorescence−ave. “no enz” fluorescence). IC50 and Ki values were very reproducible, with values falling well within +2-fold.

Another experiment addresses T2, MASP-2 (CCP1-CCP2-SP) (Homo sapiens, UniProt O00187).
T2 construct: 15 μL of Enzyme MASP-2 (CCP1-CCP2-SP) in Assay Buffer
Briefly: Enzymatic assay for MASP-2 inhibitory activity (fluorogenic substrate). Format: biochemical. Particulars: room temperature, 20 mM Hepes pH 7.4, 20 min. Here is the method: The MASP-2 assay utilizes a fluorogenic substrate, based on the cleavage site for its natural substrate C2. The assay was run at room temperature in an assay buffer containing 20 mM HEPES, pH 7.4, 140 mM NaCl and 0.1% Tween 20. Assay parameters were adjusted such that the assay was linear with respect to time, enzyme, and substrate concentrations. Under the optimized assays conditions, IC50 values were equivalent to Ki values, except in the few cases of “tight binding” inhibitors. Cases of “tight binding” or possible “slow binding” inhibitors were handled by the methods described in Copeland R. A. (2013) Evaluation of Enzyme Inhibitors in Drug Discovery. 2nd Ed., John Wiley and Sons, Inc., Chapters 5-7.
The MASP-2 assay protocol was carried out as follows. Test compounds were serially diluted in DMSO and then 100 nL of each dilution was transferred to the assay plate(s). 10 μL of Assay Buffer was added, followed by 15 μL of Enzyme MASP-2 (CCP1-CCP2-SP) in Assay Buffer. 15 μL of Substrate in Assay Buffer was then added and the mixture was mixed to start the reaction. After 20 min at room temperature, 15 μL of a stop solution (0.1 M acetic acid) was added, the sample was mixed, and the plates were read on a SpectraMax i3× Microplate Reader with the data exported as an Excel file. Each assay plate included a “no inhibitor” (DMSO only) control, a “no enzyme” control, and a reference inhibitor control. % Activity values=100*(average test comp. fluorescence−average “no enzyme” fluorescence)/(average “DMSO only” fluorescence−average “no enzyme” fluorescence). IC50 and Ki replicate values were very reproducible, with values well within +2-fold.

T2 sequence (O00187 287-686 limits assumed): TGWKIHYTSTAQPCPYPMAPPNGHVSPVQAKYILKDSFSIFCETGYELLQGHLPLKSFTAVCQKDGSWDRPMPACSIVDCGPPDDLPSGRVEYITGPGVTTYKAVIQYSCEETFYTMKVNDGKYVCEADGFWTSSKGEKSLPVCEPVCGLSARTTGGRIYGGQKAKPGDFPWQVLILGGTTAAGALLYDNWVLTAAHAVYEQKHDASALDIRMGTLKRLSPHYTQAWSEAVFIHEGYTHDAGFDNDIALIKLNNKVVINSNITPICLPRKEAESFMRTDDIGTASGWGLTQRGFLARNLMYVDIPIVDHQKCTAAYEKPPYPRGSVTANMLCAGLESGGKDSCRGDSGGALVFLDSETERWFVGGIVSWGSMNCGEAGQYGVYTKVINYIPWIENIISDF

By Ki is commonly meant the dissociation constant of the complex between target and ligand, obtained from inhibition or displacement. Higher therefore signals a looser hold on the target. Consider `Cc1nc(N)ccc1CNC(=O)[C@@H]1CCc2ncc(NCc3cccc(C#N)c3)c(=O)n21` [Compound 73, (S)-N-((6-amino-2-methylpyridin-3-yl)methyl)-3-((3-cyanobenzyl)amino)-4-oxo-4,6,7,8-tetrahydropyrrolo[1,2-a]pyrimidine-6-carboxamide], for which the results for the Ki on human a-thrombin and at MASP-2 (CCP1-CCP2-SP) were 500 to 2500 nM and below 500 nM, respectively.

`Cc1nc(N)ccc1CNC(=O)[C@@H]1CCc2ncc(NCc3ccccc3F)c(=O)n21` [Compound 68]: the Ki on human a-thrombin was 2500 to 10000 nM; at MASP-2 (CCP1-CCP2-SP) it was below 500 nM.

As to `COc1cc(F)cc(CNc2cnc3n(c2=O)[C@H](C(=O)NCc2ccc(N)nc2C)CC3)c1` [Compound 49, (S)-N-((6-amino-2-methylpyridin-3-yl)methyl)-3-((3-fluoro-5-methoxybenzyl)amino)-4-oxo-4,6,7,8-tetrahydropyrrolo[1,2-a]pyrimidine-6-carboxamide, di-trifluoroacetate], the Ki on human a-thrombin and at MASP-2 (CCP1-CCP2-SP) was below 500 nM throughout.

Take `C#Cc1cccc(CNc2cnc3n(c2=O)[C@H](C(=O)N[C@@H]2CCc4nc(N)ccc42)CC3)c1` [Compound 98]: the Ki at human a-thrombin and on MASP-2 (CCP1-CCP2-SP) was below 500 nM throughout.

Take `Cc1nc(N)ccc1CNC(=O)[C@@H]1CCc2ncc(NCc3cc(F)ccc3F)c(=O)n21` [Compound 28, (S)-N-((6-amino-2-methylpyridin-3-yl)methyl)-3-((2,5-difluorobenzyl)amino)-4-oxo-4,6,7,8-tetrahydropyrrolo[1,2-a]pyrimidine-6-carboxamide, di-trifluoroacetate]: the values for the inhibition constant Ki on human a-thrombin and on MASP-2 (CCP1-CCP2-SP) were 500 to 2500 nM and below 500 nM, respectively.

For the compound `Cc1cc(Cl)cc(CNc2cnc3n(c2=O)[C@H](C(=O)N[C@@H]2CCc4nc(N)ccc42)CC3)c1` [Compound 83, (S)—N—((R)-2-amino-6,7-dihydro-5H-cyclopenta[b]pyridin-5-yl)-3-((3-chloro-5-methylbenzyl)amino)-4-oxo-4,6,7,8-tetrahydropyrrolo[1,2-a]pyrimidine-6-carboxamide], the Ki at human a-thrombin and at MASP-2 (CCP1-CCP2-SP) was below 500 nM in each case.

As for `Nc1ccc2c(n1)CC[C@H]2NC(=O)[C@@H]1CCc2ncc(NCc3cccc(C(F)F)c3)c(=O)n21` [Compound 84, (S)-N-((R)-2-amino-6,7-dihydro-5H-cyclopenta[b]pyridin-5-yl)-3-((3-(difluoromethyl)benzyl)amino)-4-oxo-4,6,7,8-tetrahydro-pyrrolo[1,2-a]pyrimidine-6-carboxamide], the Ki on human a-thrombin is 500 to 2500 nM; on MASP-2 (CCP1-CCP2-SP), below 500 nM.

As for `Cc1cc(C)cc(CNc2cnc3n(c2=O)[C@H](C(=O)NCc2cncc(Cl)c2)CC3)c1` [Compound 17, (S)—N-((5-chloropyridin-3-yl)methyl)-3-((3,5-dimethylbenzyl)amino)-4-oxo-4,6,7,8-tetrahydropyrrolo[1,2-a]pyrimidine-6-carboxamide, trifluoroacetate], the Ki at human a-thrombin and on MASP-2 (CCP1-CCP2-SP) was below 500 nM in each case.

As for `COc1c(F)cc(F)cc1CNc1cnc2n(c1=O)[C@H](C(=O)NCc1ccc(N)nc1C)CC2` [Compound 35, (S)-N-((6-amino-2-methylpyridin-3-yl)methyl)-3-((3,5-difluoro-2-methoxybenzyl)amino)-4-oxo-4,6,7,8-tetrahydropyrrolo[1,2-a]pyrimidine-6-carboxamide, trifluoroacetate], the figures for the Ki at human a-thrombin and at MASP-2 (CCP1-CCP2-SP) were 500 to 2500 nM and below 500 nM, respectively.

`Cc1cc(C)cc(CNc2cnc3n(c2=O)[C@H](C(=O)NCc2cc4cnccc4[nH]2)CC3)c1` [Compound 6, (S)—N-((1H-pyrrolo[3,2-c]pyridin-2-yl)methyl)-3-((3,5-dimethylbenzyl)amino)-4-oxo-4,6,7,8-tetrahydropyrrolo[1,2-a]pyrimidine-6-carboxamide]: the Ki on human a-thrombin is 2500 to 10000 nM; at MASP-2 (CCP1-CCP2-SP), below 500 nM.

Regarding `Cc1cccc(CNc2cnc3n(c2=O)[C@H](C(=O)NCc2ccc(N)nc2C)CC3)c1C` [Compound 30, (S)-N-((6-amino-2-methylpyridin-3-yl)methyl)-3-((2,3-dimethylbenzyl)amino)-4-oxo-4,6,7,8-tetrahydropyrrolo[1,2-a]pyrimidine-6-carboxamide, trifluoroacetate], the Ki on human a-thrombin is 500 to 2500 nM; on MASP-2 (CCP1-CCP2-SP), below 500 nM.

Turning to `Nc1ccc2c(n1)CC[C@H]2NC(=O)[C@@H]1CCc2ncc(NCc3ccc4c(c3)OCC4)c(=O)n21` [Compound 99], the figures for the Ki on human a-thrombin and on MASP-2 (CCP1-CCP2-SP) were 2500 to 10000 nM and below 500 nM, respectively.

In the case of `Cc1cc(C)cc(CNc2cnc3n(c2=O)[C@H](C(=O)N[C@@H](C)c2ccc(N)nc2)CC3)c1` [Compound 15, (S)—N—((S)-1-(6-aminopyridin-3-yl)ethyl)-3-((3,5-dimethylbenzyl)amino)-4-oxo-4,6,7,8-tetrahydropyrrolo[1,2-a]pyrimidine-6-carboxamide], the Ki on human a-thrombin is above 25000 nM; on MASP-2 (CCP1-CCP2-SP), below 500 nM.

`Cc1cc(C)cc(CNc2cnc3n(c2=O)[C@H](C(=O)NCc2cc4cnc(C)cc4[nH]2)CC3)c1` [Compound 7, (S)-3-((3,5-dimethylbenzyl)amino)-N-((6-methyl-1H-pyrrolo[3,2-c]pyridin-2-yl)methyl)-4-oxo-4,6,7,8-tetrahydropyrrolo[1,2-a]pyrimidine-6-carboxamide, trifluoroacetate]: the Ki on human a-thrombin was above 25000 nM; at MASP-2 (CCP1-CCP2-SP) it was below 500 nM.

Consider `COc1cc(Cl)cc(CNc2cnc3n(c2=O)[C@H](C(=O)N[C@@H]2CCc4nc(N)ccc42)CC3)c1` [Compound 87, (S)-N-((R)-2-amino-6,7-dihydro-5H-cyclopenta[b]pyridin-5-yl)-3-((3-chloro-5-methoxybenzyl)amino)-4-oxo-4,6,7,8-tetrahydro-pyrrolo[1,2-a]pyrimidine-6-carboxamide], for which the Ki at human a-thrombin and on MASP-2 (CCP1-CCP2-SP) was below 500 nM throughout.

For `COc1c(C)cccc1CNc1cnc2n(c1=O)[C@H](C(=O)NCc1ccc(N)nc1C)CC2` [Compound 10, (S)—N-((6-amino-2-methylpyridin-3-yl)methyl)-3-((2-methoxy-3-methylbenzyl)amino)-4-oxo-4,6,7,8-tetrahydropyrrolo[1,2-a]pyrimidine-6-carboxamide, trifluoroacetate], the Ki on human a-thrombin is 500 to 2500 nM; on MASP-2 (CCP1-CCP2-SP), below 500 nM.

In the case of `Cc1nc(N)ccc1CNC(=O)[C@@H]1CCc2ncc(NCc3cccc(CC#N)c3)c(=O)n21` [Compound 80, (S)-N-((6-amino-2-methylpyridin-3-yl)methyl)-3-((3-(cyanomethyl)benzyl)amino)-4-oxo-4,6,7,8-tetrahydropyrrolo[1,2-a]pyrimidine-6-carboxamide], the Ki on human a-thrombin is 500 to 2500 nM; on MASP-2 (CCP1-CCP2-SP) it was below 500 nM.

With `COc1ccc(C)cc1CNc1cnc2n(c1=O)[C@H](C(=O)NCc1ccc(N)nc1C)CC2` [Compound 9, (S)-N-((6-amino-2-methylpyridin-3-yl)methyl)-3-((2-methoxy-5-methylbenzyl)amino)-4-oxo-4,6,7,8-tetrahydropyrrolo[1,2-a]pyrimidine-6-carboxamide, trifluoroacetate], the results for the Ki on human a-thrombin and on MASP-2 (CCP1-CCP2-SP) were 2500 to 10000 nM and below 500 nM, respectively.

As for `Cc1cc(C)cc(CNc2cnc3n(c2=O)[C@H](C(=O)NCc2ccc(N)nc2)CC3)c1` [Compound 4, (S)—N-((6-aminopyridin-3-yl)methyl)-3-((3,5-dimethylbenzyl)amino)-4-oxo-4,6,7,8-tetrahydropyrrolo[1,2-a]pyrimidine-6-carboxamide], the Ki on human a-thrombin was 500 to 2500 nM; at MASP-2 (CCP1-CCP2-SP), below 500 nM.
